Results as given in BindingDB's records for doi:10.1016/j.bmcl.2008.03.079 (Columbia University, 2008).

Target: T1, Tyrosine-protein phosphatase non-receptor type 22 (Homo sapiens, UniProt Q9Y2R2)
T1 sequence (Q9Y2R2 whole entry): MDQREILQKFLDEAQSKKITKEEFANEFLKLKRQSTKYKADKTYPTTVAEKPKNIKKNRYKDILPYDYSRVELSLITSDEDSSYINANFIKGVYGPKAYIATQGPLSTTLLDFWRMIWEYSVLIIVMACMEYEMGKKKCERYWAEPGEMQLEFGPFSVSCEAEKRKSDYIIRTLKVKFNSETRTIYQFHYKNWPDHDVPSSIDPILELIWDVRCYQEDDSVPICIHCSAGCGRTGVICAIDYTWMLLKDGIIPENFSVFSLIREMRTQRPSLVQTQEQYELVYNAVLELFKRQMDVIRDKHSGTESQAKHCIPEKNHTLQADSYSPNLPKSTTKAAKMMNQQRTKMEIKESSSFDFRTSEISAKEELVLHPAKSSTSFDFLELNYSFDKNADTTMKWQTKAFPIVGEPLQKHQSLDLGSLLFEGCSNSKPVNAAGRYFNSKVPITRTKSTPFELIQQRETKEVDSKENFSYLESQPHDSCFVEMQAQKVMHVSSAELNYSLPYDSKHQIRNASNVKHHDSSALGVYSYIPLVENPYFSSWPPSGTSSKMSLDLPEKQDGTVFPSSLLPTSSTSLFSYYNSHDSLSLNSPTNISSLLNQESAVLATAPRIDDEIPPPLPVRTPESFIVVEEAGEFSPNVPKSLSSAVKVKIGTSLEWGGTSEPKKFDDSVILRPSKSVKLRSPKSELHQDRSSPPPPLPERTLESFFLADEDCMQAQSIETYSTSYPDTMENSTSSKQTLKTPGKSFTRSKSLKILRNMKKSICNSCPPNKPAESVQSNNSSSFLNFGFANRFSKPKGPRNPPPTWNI
Test: Inhibition of lymphoid specific tyrosine phosphatase

IC50, > 44 µM:
O=C(O)c1cc(-c2ccc(C=Nn3cc(O)[nH]c3=O)o2)ccc1O, O=C(O)Cn1c(O)cn(N=Cc2ccc(-c3ccc(O)c(C(=O)O)c3)s2)c1=O, COC(=O)c1cc(-c2ccc(C=Nn3cc(O)[nH]c3=O)o2)ccc1O, COC(=O)c1cc(-c2ccc(C=Nn3cc(O)[nH]c3=O)s2)ccc1O
